Reference: US20240018161A1, “MODULATORS OF CYSTIC FIBROSIS TRANSMEMBRANE CONDUCTANCE REGULATOR” (VERTEX PHARMACEUTICALS INCORPORATED, priority 2020, published 2024)
Values belong to the molecule of their own block, whether it stands above or below them.

How the values were obtained:
[1] = target: T1, CFTR-mediated chloride transport in human intestinal epithelial enteroid cells (Homo sapiens, UniProt P13569); test: Membrane potential dye, Enteroid Assay B; type: cell-based; settings: Enteroid Assay B; for EC50: read-out: Ent. B EC50
Protocol: Base medium (ADF+++) consisted of Advanced DMEM/Ham's F12, 2 mM Glutamax, 10 mM HEPES, […] penicillin/streptomycin.
Bath 1 Buffer consisted of 1 mM MgCl2, 160 mM NaCl, 4.5 mM KCl, 10 mM HEPES, 10 mM Glucose, 2 mM CaCl2.
Chloride Free Buffer consisted of 1 mM Magnesium Gluconate, 2 mM Calcium Gluconate, 4.5 mM Potassium Gluconate, 160 mM Sodium Gluconate, 10 mM HEPES, 10 mM Glucose.
Bath1 Dye Solution consisted of Bath 1 Buffer, 0.04% Pluronic F127, 20 μM Methyl Oxonol, 30 μM CaCCinh-A01, 30 μM Chicago Sky Blue.
Chloride Free Dye Solution consisted of Chloride Free Buffer, 0.04% Pluronic F127, 20 μM Methyl Oxonol, 30 μM CaCCinh-A01, 30 μM Chicago Sky Blue.
3. Enteroid Cell Harvesting and Seeding
Cells were recovered in cell recovery solution, collected by centrifugation at 650 rpm for 5 min at 4° C., resuspended in TryPLE and incubated for 5 min at 37° C. Cells were then collected by centrifugation at 650 rpm for 5 min at 4° C. and resuspended in IEMM containing 10 μM ROCK inhibitor (RI).
5. Membrane Potential Dye, Enteroid Assay B
Briefly, cells were washed 5 times in Bath 1 Buffer. Bath 1 Dye Solution was added and the cells were incubated for 25 min at room temperature. Following dye incubation, cells were washed 3 times in Chloride Free Dye Solution. Chloride transport was initiated by addition of Chloride Free Dye Stimulation Solution and the fluorescence signal was read for 15 min.

[2] = target: T1, CFTR-mediated chloride transport in human intestinal epithelial enteroid cells; test: Membrane potential dye, Enteroid Assay A; type: cell-based; settings: for EC50: read-out: Ent. A EC50
Method in brief: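 Membrane potential dye (20 μM methyl oxonol, with 30 μM CaCCinh-A01 and 30 μM Chicago Sky Blue) loaded 25 min at room temperature into ROCK-inhibitor-seeded human enteroid cells. Chloride-free stimulation buffer triggered transport, followed by 15 min fluorescence. % Activity relative to 3 μM/3 μM/300 nM triple-combination control.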

[3] = percentage of chloride transport of triple combination control (3 μM N-[(6-amino-2-pyridyl)sulfonyl]-6-(3-fluoro-5-isobutoxy-phenyl)-2-[(4S)-2,2,4-trimethylpyrrolidin-1-yl]pyridine-3-carboxamide based)
[4] = enteroid cells incubated with test compound 18-24 hours, acute 10 μM forskolin and 300 nM N-[2,4-bis(1,1-dimethylethyl)-5-hydroxyphenyl]-1,4-dihydro-4-oxoquinoline-3-carboxamide

T1 sequence (P13569 with tags, fused parts or gaps DEL508-508): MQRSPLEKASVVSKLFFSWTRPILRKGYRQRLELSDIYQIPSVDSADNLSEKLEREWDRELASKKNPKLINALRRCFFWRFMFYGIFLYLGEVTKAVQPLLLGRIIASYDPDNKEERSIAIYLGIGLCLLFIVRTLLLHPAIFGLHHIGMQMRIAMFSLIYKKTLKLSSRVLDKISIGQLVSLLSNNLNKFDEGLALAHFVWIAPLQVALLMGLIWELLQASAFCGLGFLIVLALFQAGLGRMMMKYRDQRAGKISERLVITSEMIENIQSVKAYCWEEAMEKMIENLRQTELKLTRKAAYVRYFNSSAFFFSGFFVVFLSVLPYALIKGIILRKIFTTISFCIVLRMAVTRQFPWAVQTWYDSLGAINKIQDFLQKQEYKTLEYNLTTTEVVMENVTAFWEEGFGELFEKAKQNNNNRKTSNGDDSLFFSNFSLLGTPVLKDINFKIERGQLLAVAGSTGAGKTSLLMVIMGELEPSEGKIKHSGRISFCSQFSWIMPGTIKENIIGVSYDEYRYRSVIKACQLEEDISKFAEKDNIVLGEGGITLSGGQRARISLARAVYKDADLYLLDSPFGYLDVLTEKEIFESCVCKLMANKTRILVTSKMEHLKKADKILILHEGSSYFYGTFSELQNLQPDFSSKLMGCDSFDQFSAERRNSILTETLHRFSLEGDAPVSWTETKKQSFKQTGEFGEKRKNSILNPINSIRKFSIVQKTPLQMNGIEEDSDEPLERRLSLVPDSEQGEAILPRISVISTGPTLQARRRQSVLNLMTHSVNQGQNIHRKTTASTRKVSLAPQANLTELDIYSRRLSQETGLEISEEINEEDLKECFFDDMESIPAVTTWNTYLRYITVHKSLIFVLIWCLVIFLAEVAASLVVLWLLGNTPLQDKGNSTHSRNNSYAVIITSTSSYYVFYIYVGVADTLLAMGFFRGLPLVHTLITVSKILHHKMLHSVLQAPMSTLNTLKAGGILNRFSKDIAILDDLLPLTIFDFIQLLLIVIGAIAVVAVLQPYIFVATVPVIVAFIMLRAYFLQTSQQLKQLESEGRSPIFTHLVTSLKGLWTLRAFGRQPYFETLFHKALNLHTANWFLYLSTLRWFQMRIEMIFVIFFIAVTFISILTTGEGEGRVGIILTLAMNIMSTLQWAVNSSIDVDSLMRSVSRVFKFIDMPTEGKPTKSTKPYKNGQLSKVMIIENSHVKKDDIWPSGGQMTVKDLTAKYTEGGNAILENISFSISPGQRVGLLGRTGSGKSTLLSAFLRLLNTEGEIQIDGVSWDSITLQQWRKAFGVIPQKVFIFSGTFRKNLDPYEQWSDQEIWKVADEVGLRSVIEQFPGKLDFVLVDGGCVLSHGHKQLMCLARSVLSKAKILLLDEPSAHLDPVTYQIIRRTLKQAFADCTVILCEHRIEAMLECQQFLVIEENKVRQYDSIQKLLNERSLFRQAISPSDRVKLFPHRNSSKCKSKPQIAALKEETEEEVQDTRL

- Ent. A Max Activity (%) ([2]; Enteroid Assay A): ++ (++ is 30-60%)
- EC50 ([2]; Enteroid Assay A): < 1000 nM
SMILES: Cc1cccc(C)c1-c1cc2nc(n1)NS(=O)(=O)c1cccc(c1)C(=O)N1CCCN(CCCC3(C(F)(F)F)CC3)CC(C1)O2 (centres unmarked) [Compound 357]

- Ent. A Max Activity (%) ([2]; Enteroid Assay A): ++ (++ is 30-60%)
- EC50 ([2]; Enteroid Assay A): < 1000 nM
SMILES: Cc1cccc(C)c1-c1cc2nc(n1)NS(=O)(=O)c1cccc(c1)C(=O)N1CCCN(CCC3(C(F)(F)F)CC3)CC(C1)O2 (centres unmarked) [Compound 358]

- Ent. A Max Activity (%) ([2]; Enteroid Assay A): ++ (++ is 30-60%)
- EC50 ([2]; Enteroid Assay A): 1000 to 3000 nM
SMILES: Cc1cccc(C)c1-c1cc2nc(n1)NS(=O)(=O)c1cccc(c1)C(=O)N1CCCN(C(=O)OC(C)(C)C)CC(C1)O2 (centres unmarked) [Compound 359]

- Ent. A Max Activity (%) ([2]; Enteroid Assay A): ++ (++ is 30-60%)
- EC50 ([2]; Enteroid Assay A): < 1000 nM
SMILES: Cc1cccc(C)c1-c1cc2nc(n1)NS(=O)(=O)c1cccc(c1)C(=O)N1CC(CC(C)(C)C1)O2 (centres unmarked) [Compound 362]

- EC50 [2, 4]: 3000 to 30000 nM
SMILES: Cc1cccc(C)c1-c1cc2nc(n1)NS(=O)(=O)c1cccc(c1)C(=O)N1C[C@H]3C[C@@H]1[C@@H](C3)O2 [Compound 363]
- Ent. A Max Activity (%) [2, 3]: +++ (+++ is >60%)

- EC50 [2, 4]: 3000 to 30000 nM
SMILES: Cc1cccc(C)c1-c1cc2nc(n1)NS(=O)(=O)c1cccc(c1)C(=O)N1CC3CC(O2)C1C3 (centres unmarked) [Compound 365]
- Ent. A Max Activity (%) [2, 3]: ++ (++ is 30-60%)

- EC50 [2, 4]: 3000 to 30000 nM
SMILES: Cc1cccc(C)c1-c1cc2nc(n1)NS(=O)(=O)c1cccc(c1)C(=O)N1CCOC[C@@H]1CO2 [Compound 366]
- Ent. A Max Activity (%) [2, 3]: ++ (++ is 30-60%)

- EC50 [2, 4]: 3000 to 30000 nM
SMILES: Cc1cccc(C)c1-c1cc2nc(n1)NS(=O)(=O)c1cccc(c1)C(=O)N1CCC[C@@H]1CO2 [Compound 367]
- Ent. A Max Activity (%) [2, 3]: +++ (+++ is >60%)

- EC50 [2, 4]: 1000 to 3000 nM
SMILES: Cc1cccc(C)c1-c1cc2nc(n1)NS(=O)(=O)c1cccc(c1)C(=O)N1CC(C)(C)CC1CO2 (centres unmarked) [Compound 368]
- Ent. A Max Activity (%) [2, 3]: ++ (++ is 30-60%)

- EC50 [2, 4]: < 1000 nM
SMILES: Cc1cccc(C)c1-c1cc2nc(n1)NS(=O)(=O)c1cccc(c1)C(=O)N1CCC3(CC3)C(C1)O2 (centres unmarked) [Compound 370]
- Ent. A Max Activity (%) [2, 3]: +++ (+++ is >60%)

Further lines, the molecule ahead of its results:

SMILES: Cc1cccc(C)c1-c1cc2nc(n1)NS(=O)(=O)c1cccc(c1)C(=O)N1C[C@@H](CN(C(=O)OC(C)(C)C)C[C@@H]1CCO)O2 (single isomer, unassigned) [Compound 137, tert-butyl 12-(2,6-dimethylphenyl)-20-(2-hydroxyethyl)-2,8,8-trioxo-15-oxa-8λ^6-thia-1,9,11,18,22-pentaazatetracyclo[14.4.1.13,7.110,14]tricosa-3(23),4,6,10(22),11,13-hexaene-18-carboxylate]
- Ent. B Max Activity (%) [1]: +++ (+++ is >600%)
- EC50 [1]: 1000 to 3000 nM

SMILES: Cc1cccc(C)c1-c1cc2nc(n1)NS(=O)(=O)c1cccc(c1)C(=O)N1C[C@@H](CCC[C@@H]1CC(C)C)O2 (single isomer, unassigned) [Compound 179]
- Ent. B Max Activity (%) [1]: + (+ is <30%)

SMILES: Cc1cccc(C)c1-c1cc2nc(n1)NS(=O)(=O)c1cccc(c1)C(=O)N1C[C@@H](CCC[C@@H]1CC(C)C)O2 (single isomer, unassigned) [Compound 180]
- Ent. B Max Activity (%) [1]: ++ (++ is 30-60%)
- EC50 [1]: < 1000 nM

SMILES: Cc1cccc(C)c1-c1cc2nc(n1)NS(=O)(=O)c1cccc(c1)C(=O)N1C[C@H](O2)c2ccccc2[C@@H]1CC(C)C (single isomer, unassigned) [Compound 190, 12-(2,6-Dimethylphenyl)-23-(2-methylpropyl)-15-oxa-8λ^6-thia-1,9,11,25-tetraazapentacyclo[14.7.1.13,7.110,14.017,22]hexacosa-3(26),4,6,10(25),11,13,17,19,21-nonaene-2,8,8-trione]
- Ent. B Max Activity (%) [1]: ++ (++ is 30-60%)
- EC50 [1]: < 1000 nM

SMILES: Cc1cccc(C)c1-c1cc2nc(n1)NS(=O)(=O)c1cccc(c1)C(=O)N1C[C@H](O2)c2ccccc2[C@@H]1CC(C)C (single isomer, unassigned) [Compound 191, 12-(2,6-Dimethylphenyl)-23-(2-methylpropyl)-15-oxa-8λ^6-thia-1,9,11,25-tetraazapentacyclo[14.7.1.13,7.110,14.017,22]hexacosa-3(26),4,6,10(25),11,13,17,19,21-nonaene-2,8,8-trione]
- Ent. B Max Activity (%) [1]: ++ (++ is 30-60%)
- EC50 [1]: < 1000 nM

SMILES: Cc1cccc(C)c1-c1cc2nc(n1)NS(=O)(=O)c1cccc(c1)C(=O)N1Cc3cc(C(C)(C)C)ccc3C(CO2)C1C (single isomer, unassigned) [Compound 218, 21-tert-Butyl-12-(2,6-dimethylphenyl)-25-methyl-15-oxa-8λ^6-thia-1,9,11,26-tetraazapentacyclo[15.7.1.13,7.110,14.018,23]heptacosa-3,5,7(27),10,12,14(26),18,20,22-nonaene-2,8,8-trione]
- Ent. B Max Activity (%) [1]: + (+ is <30%)

SMILES: Cc1cccc(C)c1-c1cc2nc(n1)NS(=O)(=O)c1cccc(c1)C(=O)N1Cc3cc(C(C)(C)C)ccc3C(CO2)C1C (single isomer, unassigned) [Compound 219, 21-tert-butyl-12-(2,6-dimethylphenyl)-25-methyl-15-oxa-8λ^6-thia-1,9,11,26-tetraazapentacyclo[15.7.1.13,7.110,14.018,23]heptacosa-3,5,7(27),10,12,14(26),18,20,22-nonaene-2,8,8-trione]
- Ent. B Max Activity (%) [1]: +++ (+++ is >600%)
- EC50 [1]: < 1000 nM

SMILES: Cc1cccc(C)c1-c1cc2nc(n1)NS(=O)(=O)c1cccc(c1)C(=O)N1CCc3cc(C(C)(C)C)ccc3[C@H]1CO2 (single isomer, unassigned) [Compound 236, 8-tert-Butyl-17-(2,6-dimethylphenyl)-14-oxa-21λ^6-thia-3,18,20,27-tetraazapentacyclo[20.3.1.115,19.03,12.06,11]heptacosa-1(26),6(11),7,9,15(27),16,18,22,24-nonaene-2,21,21-trione]
- Ent. B Max Activity (%) [1]: +++ (+++ is >600%)
- EC50 [1]: < 1000 nM

SMILES: Cc1cccc(C)c1-c1cc2nc(n1)NS(=O)(=O)c1cccc(c1)C(=O)N1CCN[C@H](CC(C)C)[C@H](C1)O2 [Compound 118, (16S,17R)-12-(2,6-Dimethylphenyl)-17-(2-methylpropyl)-15-oxa-8λ^6-thia-1,9,11,18,22-pentaazatetracyclo[14.4.1.13,7.110,14]tricosa-3(23),4,6,10(22),11,13-hexaene-2,8,8-trione]
- Ent. B Max Activity (%) [1]: +++ (+++ is >600%)
- EC50 [1]: < 1000 nM

SMILES: Cc1cccc(C)c1-c1cc2nc(n1)NS(=O)(=O)c1cccc(c1)C(=O)N1CCN(C3CC4(CCCC4)C3)[C@H](CC(C)C)[C@H](C1)O2 [Compound 119, (16S,17R)-12-(2,6-dimethylphenyl)-17-(2-methylpropyl)-18-{spiro[3.4]octan-2-yl}-15-oxa-8λ^6-thia-1,9,11,18,22-pentaazatetracyclo[14.4.1.13,7.110,14]tricosa-3(23),4,6,10(22),11,13-hexaene-2,8,8-trione]
- Ent. B Max Activity (%) [1]: +++ (+++ is >600%)
- EC50 [1]: < 1000 nM

SMILES: Cc1cccc(C)c1-c1cc2nc(n1)NS(=O)(=O)c1cccc(c1)C(=O)N1CC(CCCO2)CC1(C)C (centres unmarked) [Compound 356]
- Ent. A Max Activity (%) ([2]; Enteroid Assay A): ++ (++ is 30-60%)
- EC50 ([2]; Enteroid Assay A): 3000 to 30000 nM

SMILES: Cc1cccc(C)c1-c1cc2nc(n1)NS(=O)(=O)c1cncc(c1)C(=O)N1Cc3ccccc3[C@@H](C1)O2 [Compound 360]
- Ent. A Max Activity (%) [2, 3]: + (+ is <300%)

SMILES: Cc1cccc(C)c1-c1cc2nc(n1)NS(=O)(=O)c1cncc(c1)C(=O)N1Cc3ccccc3[C@H](C1)O2 [Compound 361]
- Ent. A Max Activity (%) [2, 3]: + (+ is <300%)

SMILES: Cc1cccc(C)c1-c1cc2nc(n1)NS(=O)(=O)c1cccc(c1)C(=O)N1C[C@H]3C[C@@H]1[C@@H](C3)O2 [Compound 364]
- Ent. A Max Activity (%) [2, 3]: ++ (++ is 30-60%)

SMILES: Cc1cccc(C)c1-c1cc2nc(n1)NS(=O)(=O)c1cccc(c1)C(=O)N1CCCCC(C1)O2 (centres unmarked) [Compound 369]
- Ent. A Max Activity (%) [2, 3]: + (+ is <300%)
